The test system of this assay is mixed muscle protein synthesis. The assay is described as follows: Fractional synthetic rate of mixed muscle protein synthesis in anaesthetized rats after intravenous infusion of amino acid compositions. The assay is classed as in vivo. Here is the method: Four groups of anaesthetized rats were given an amino acid composition. The same total amount of amino acids was given to each group by intravenous infusion. A fifth group was added to the study as a control group. The first group was given a balanced mixture of amino acids, commercially available under the trade name Travasol. This mixture contains less than 5% leucine. The second group was given 75% of Travasol and 25% of leucine. The third group was given 65% of Travasol and 35% of leucine, and the fourth group was given only leucine. The in fractional synthetic rate of mixed muscle protein synthesis (FSR (%/h)) was measured as described by Ferrando et al., Am. J. Physiol., 275:E864-E871, 1998, the contents of which are incorporated herein by reference.

In the case of `CC(C)C[C@H](N)C(=O)O` [Leucine alone, leucine], the “response in protein production” value (administration of L-leucine alone, as shown in the appended examples) is “does not induce the desired response in protein production”. For the same compound, the “FSR (%/h), fractional synthetic rate of mixed muscle protein synthesis” value (anaesthetized rats, intravenous infusion, same total amount of amino acids given to each group) turned out to be 0.0767 ± 0.0204 %/h.

For the origin of these results see patent publication US20080161398A1, “STIMULATION OF IN VIVO PRODUCTION OF PROTEINS” (Nutricia N.V., priority 2002, published 2008).
